Where two headings read alike, the source gives them in different places.
How the values were obtained:
[1] = target: T1, human CB2 receptor (Homo sapiens, UniProt P34972); assay: CB2 receptor affinity ([3H]-CP-55,940 displacement, HEK cell membranes); assay type: binding; settings: displacement of [3H]-CP-55,940 at 10 μM
T1 construct: expressed in transfected cells; host or cells: human embryonic kidney (HEK) cells, Semliki Forest Virus system, membrane preparations
Description: (§1) The affinity of the compounds of the invention for cannabinoid CB2 receptors was determined using membrane preparations of human embryonic kidney (HEK) cells in which the human CB2 receptor is transiently transfected using a Semliki Forest Virus system in conjunction with [^3H]-CP-55,940 as radioligand. After incubation of freshly prepared cell membrane preparation with the [^3H]-ligand, with or without addition of compounds of the invention, separation of bound and free ligand was performed by filtration over glass fiber filters. Radioactivity on the filter was measured by scintillation counting.
(§2) The ability of the compounds to displace the radioligand [^3H]-CP-55,940 was measured at a concentration of 10 μM and values provided as [% inhibition @ 10 μM] both for the CB1 and CB2 receptor assay, The lower % inhibition is, the lower the likelihood of side effects based on CB1 or CB2 receptor inhibition is.

[2] = target: T2, human CB1 receptor (Homo sapiens, UniProt P21554); assay: CB1 receptor affinity ([3H]-CP-55,940 displacement, HEK cell membranes); assay type: binding; settings: read-out: CB1 receptor affinity [% inhibition @ 10 μM]
T2 construct: expressed in transfected cells; host or cells: human embryonic kidney (HEK) cells, Semliki Forest Virus system, membrane preparations
Description: as §1, with “cannabinoid” for “cannabinoid CB2”, “CB1” for “CB2”, “[3H]-CP-55,940” for “[^3H]-CP-55,940”
as §2

[3] = test system: ABCA1 protein; assay: Detection of upregulation of ABCA1 protein in cells (ApoA-I binding, high content imaging); assay type: cell-based; settings: THP-1 macrophage cells; for EC50: 24 hrs compound incubation, read-out: EC50 [μM] ABCA1 protein increasing efficacy; for % increase of ABCA1 at 3 μM: compound at 3 μM, 24 hrs
Description: The ability of compounds of the invention to increase the level of ABCA1 protein is determined in replicate cultures of THP-1 macrophage cells in 96-well microplates. Cells are plated at an initial density of 100,000 cells/well in 100 μl medium and differentiated to adherent macrophages with the addition of PMA (100 nM) for 68 hrs in 10% fetal bovine serum, 3 μl/L of b-mercaptoethanol, RPMI-1640 medium. Then, cells are incubated with RPMI-1640 medium containing 1% FCS, 25 μg/ml acetylated LDL, for 24 hours at 37° C. Following incubation with acetylated LDL, cells are washed twice with 50 μl PBS and incubated with 100 μl of RPMI-1640 medium containing the compound of interest solubilized in DMSO for an additional 24 hrs. The final DMSO concentration in presence of cells is maintained at 0.5%. ApoA-I binding assay using High Content Image Analysis is initiated by replacing with fresh medium, RPMI without Phenol Red, 0.2% BSA containing AlexaFluor®647 labeled ApoA-I for 2 h/37° C./5% CO2. Then, cells are fixed with 4% Formaldehyde in PBS (15 min, RT). Following Nuclei are stained with Hoechst solution (3 μM PBS) and Cytoplasm with Cell Mask Blue (2 μg/ml PBS), 15 min, RT. Finally the stained cells are fixed with a second round of formaldehyde treatment. Fixed stained cells are washed and kept in PBS at 4° C. and can be read immediately until one month after preparation.
The Alexa Fluor 647-labeled Apolipoprotein A-I (20 nM) was prepared as follows: Human recombinant Apolipoprotein A-I (ApoA-I) was exchanged to a buffer of 0.02 M NaHCO3 at pH 8.2 on an NAP desalting column (GE Healthcare) and brought to a concentration to 40 μM (1.13 mg/ml) by adjustment with the same buffer. The ApoA-I was fluorescently labeled by incubation with Alexa Fluor carboxylic acid succimidyl ester (Alexa Fluor 647, Invitrogen A-20006) at a 2:1 molar ratio (Alexa to ApoA-I) for 1 h under shaking at RT. The remaining unconjugated label was removed by buffer exchange to 0.02M NaHCO3 at pH 8.2.
Imaging and data collection were performed on an OPERA confocal microplate imaging reader using a 20× water immersion objective and UV360 or 405 laser to identify the cell nuclei and a 635 laser to identify the fluorescent ApoA-I. Eight fields of view are captured per well. Image capture and analysis was performed with the Acapella software. Background fluorescence detected in control wells without ApoA-I was subtracted.
Using XLfit3 program (ID Business Solutions Ltd. UK), the model 205 for Dose Response One Site is used to calculate the EC50 values. […] More particularly, the compounds of the present invention have EC50 values in a range of 0.1 μM to 3 μm.

[4] = displacement of [3H]-CP-55,940 at 10 μM

T1 sequence (P34972 whole entry): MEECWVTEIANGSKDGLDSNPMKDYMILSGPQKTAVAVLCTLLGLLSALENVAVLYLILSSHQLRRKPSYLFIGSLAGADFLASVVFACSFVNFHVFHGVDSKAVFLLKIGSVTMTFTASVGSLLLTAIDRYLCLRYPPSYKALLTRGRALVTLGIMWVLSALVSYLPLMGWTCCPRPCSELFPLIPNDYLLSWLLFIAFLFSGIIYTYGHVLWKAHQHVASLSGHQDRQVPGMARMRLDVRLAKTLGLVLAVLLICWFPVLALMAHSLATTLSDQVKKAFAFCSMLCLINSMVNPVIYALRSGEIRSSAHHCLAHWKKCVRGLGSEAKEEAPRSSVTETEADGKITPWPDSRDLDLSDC
T2 sequence (P21554 whole entry): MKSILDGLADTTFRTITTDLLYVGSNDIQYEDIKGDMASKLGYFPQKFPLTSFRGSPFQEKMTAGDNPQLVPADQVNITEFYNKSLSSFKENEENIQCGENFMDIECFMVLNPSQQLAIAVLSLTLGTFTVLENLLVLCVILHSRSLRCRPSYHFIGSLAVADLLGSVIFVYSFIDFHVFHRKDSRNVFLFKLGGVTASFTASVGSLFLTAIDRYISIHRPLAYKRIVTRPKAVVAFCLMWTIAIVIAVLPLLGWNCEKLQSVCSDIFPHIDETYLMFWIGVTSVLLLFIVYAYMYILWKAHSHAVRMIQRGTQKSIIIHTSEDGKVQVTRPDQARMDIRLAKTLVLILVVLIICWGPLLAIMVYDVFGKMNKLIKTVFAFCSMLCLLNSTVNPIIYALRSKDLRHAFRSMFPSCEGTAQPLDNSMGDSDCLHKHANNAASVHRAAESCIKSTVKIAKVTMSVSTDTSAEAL

Row | SMILES | inhibition at 10 µM [1] | inhibition at 10 µM [2, 4] | EC50 [3] | % increase of ABCA1 at 3 μM [3] | inhibition at 10 µM [2]
1 | O=C(NNCc1ccncc1)c1cnc(OCC(F)(F)F)c(C2CC2)c1 [Example 46, 5-cyclopropyl-6-(2,2,2-trifluoro-ethoxy)-nicotinic acid N′-pyridin-4-ylmethyl-hydrazide] | 11% | 11% |  | >45%@ 3 μM | 
2 | CN(NC(=O)c1cnc(OC2CCC2)c(C2CC2)c1)c1ccc(F)cc1 [Example 47, 6-cyclobutoxy-5-cyclopropyl-nicotinic acid N′-(4-fluoro-phenyl)-N′-methyl-hydrazide] | 7% | 25% |  | >45%@ 3 μM | 
3 | O=C(NNc1ccc(F)cc1)c1cnc(OC2CCC2)c(-c2ccco2)c1 [Example 48, 6-cyclobutoxy-5-furan-2-yl-nicotinic acid N′-(4-fluoro-phenyl)-hydrazide] | -2% | 43% | 0.8 µM |  | 
4 | O=C(NN1CCC(O)CC1)c1cnc(OC2CCC2)c(-c2ccco2)c1 [Example 50, 6-cyclobutoxy-5-furan-2-yl-N-(4-hydroxy-piperidin-1-yl)-nicotinamide] | 6% | 15% | 0.16 µM |  | 
5 | CN(NC(=O)c1cnc(OC2CCC2)c(-c2ccco2)c1)c1ccc(Cl)nn1 [Example 51, 6-cyclobutoxy-5-furan-2-yl-nicotinic acid N′-(6-chloro-pyridazin-3-yl)-N′-methyl-hydrazide] | -4% |  | 0.47 µM |  | 30%
6 | CN(NC(=O)c1cnc(OC2CCC2)c(-c2ccco2)c1)c1ccncc1 [Example 52, 6-cyclobutoxy-5-furan-2-yl-nicotinic acid N′-methyl-N′-pyridin-4-yl-hydrazide] | 19% | 31% | 5.8 µM |  | 
7 | CN(NC(=O)c1cnc(OC2CCC2)c(C2CC2)c1)c1ccc(C#N)cc1 [Example 55, 6-cyclobutoxy-5-cyclopropyl-nicotinic acid N′-(4-cyano-phenyl)-N′-methyl-hydrazide] | 18% | 27% |  | >45%@ 3 μM | 
8 | CN(NC(=O)c1cnc(OCC(F)(F)F)c(-c2cccc(F)c2)c1)c1ccccc1 [Example 56, 5-(3-fluoro-phenyl)-6-(2,2,2-trifluoro-ethoxy)-nicotinic acid N′-methyl-N′-phenyl-hydrazide] | 16% | 28% |  | >45%@ 3 μM | 

Further lines, with some results ahead:

Row | inhibition at 10 µM [1] | inhibition at 10 µM [2, 4] | SMILES | EC50 [3] | % increase of ABCA1 at 3 μM [3] | inhibition at 10 µM [2]
9 | 38% | 29% | CN(NC(=O)c1cnc(OCC2CC2)c(C2CC2)c1)c1ccc(F)cc1 [Example 41, 5-cyclopropyl-6-cyclopropylmethoxy-nicotinic acid N′-(4-fluoro-phenyl)-N′-methyl-hydrazide] | 1.1 µM |  | 
10 | 9% | 11% | O=C(NNc1ccc(F)cc1)c1cnc(OCC2CC2)c(C2CC2)c1 [Example 42] | 3.2 µM |  | 
11 | 39% | 28% | CN(NC(=O)c1cnc(OCC2CC2)c(C2CC2)c1)c1ccccc1 [Example 43, 5-cyclopropyl-6-cyclopropylmethoxy-nicotinic acid N′-methyl-N′-phenyl-hydrazide] | 1.04 µM |  | 
12 | 5% | 14% | C[C@@H]1CN(NC(=O)c2cnc(OCC(F)(F)F)c(C3CC3)c2)C[C@H](C)O1 [Example 44, 5-cyclopropyl-N-((2R,6S)-2,6-dimethyl-morpholin-4-yl)-6-(2,2,2-trifluoro-ethoxy)-nicotinamide] |  | >45%@ 3 μM | 
13 | 17% | 19% | C[C@@H]1CN(NC(=O)c2cnc(OCC3CC3)c(C3CC3)c2)C[C@H](C)O1 [Example 45, 5-cyclopropyl-6-cyclopropylmethoxy-N-((2R,6S)-2,6-dimethyl-morpholin-4-yl)-nicotinamide] | 9.4 µM |  | 
14 | 3% | 13% | CN(NC(=O)c1cnc(OCC(F)(F)F)c(C2CC2)c1)c1ccncc1 [Example 49, 5-cyclopropyl-6-(2,2,2-trifluoro-ethoxy)-nicotinic acid N′-methyl-N′-pyridin-4-yl-hydrazide] |  | >45%@ 3 μM | 
15 | 48% | 47% | CN(NC(=O)c1cnc(OCC2CC2)c(C2CC2)c1)c1ccc(C#N)cc1 [Example 53, 5-cyclopropyl-6-cyclopropylmethoxy-nicotinic acid N′-(4-cyano-phenyl)-N′-methyl-hydrazide] |  | >45%@ 3 μM | 
16 | 17% | 36% | CN(NC(=O)c1cnc(OCC(F)(F)F)c(C2CC2)c1)c1ccc(C#N)cc1 [Example 54, 5-cyclopropyl-6-(2,2,2-trifluoro-ethoxy)-nicotinic acid N′-(4-cyano-phenyl)-N′-methyl-hydrazide] |  | >45%@ 3 μM | 

— patent US8648099B2 (Hoffmann-La Roche Inc., priority 2011, dated 2014)
